Laboratory results from patent US20240165092A1, “USE OF AN OREXIN 2 RECEPTOR AGONIST FOR POST OPERATION RECOVERY” (Takeda Pharmaceutical Limited Company, priority 2021, published 2024).

Columns and labels:
Type in all cases: in vivo, rat
Male Sprague-Dawley rats [1] = experiment: Fentanyl-induced analgesic effects in pain model of postoperative skin incision
Male Sprague-Dawley rats [2] = experiment: Time to recovery from isoflurane-induced anesthesia assessed by righting reflex; settings: for Duration of anesthesia (min) (Mean): isoflurane anesthesia 30 min, vehicle 6.15
Procedure: Male Sprague-Dawley rats, 8 weeks-age, were purchased from Charles river Japan. To induce and maintain isoflurane anesthesia, rats were placed in a pre-filled anesthesia induction chamber isoflurane 4%. The induction of anesthesia was defined as the rat's inability to right itself into the prone position (loss of righting reflex: LORR) after it was placed in the supine position in a cage. After confirming LORR, rats were exposed to 3% isoflurane using a facemask and maintained for 30 min. Fifteen minutes after LORR, Compound (I) was administered subcutaneously (SC) to rats in a volume of 5 mL/kg of body weight (BW). As vehicle-treated control, 10.5% (w/v) Captisol® (CyDex Pharmaceuticals, KS, USA)/1.5 mM Na2HIPO4 in distilled water was administered to rats. Thirty minutes after confirming LORR, isoflurane inhalation was terminated and time to recovery from LORR was recorded as duration of anesthesia. Body temperature was maintained at 37.0-37.5° C. using a heating pad during and after anesthesia.

Male Sprague-Dawley rats [3] = experiment: Fentanyl (0.1 mg/kg)-induced sedation assessed by righting reflex; settings: for Duration of sedation (min) (Mean): fentanyl 0.1 mg/kg SC, vehicle 88.8
Procedure: Male Sprague-Dawley rats, 8 weeks-age, were purchased from Charles river Japan. In this study, LORR was used as an indicator of sedation. […] As vehicle-treated control, 10.5% (w/v) Captisol®/1.5 mM Na2HIPO4 in distilled water was administered. The time to recovery from LORR was recorded as duration of sedation.

Male Sprague-Dawley rats [4] = experiment: Time to recovery from propofol-induced anesthesia assessed by righting reflex; settings: for Duration of anesthesia (min) (Mean): propofol anesthesia 30 min, vehicle 12.8
Procedure: Male Sprague-Dawley rats, 8 weeks-age, were purchased from Charles river Japan. To induce and maintain propofol anesthesia, a bolus dose of propofol (10 mg/kg) was administered intravenously to rats. After confirming LORR, rats were gently placed in the supine position on a heating pad to maintain body temperature at 37.0-37.5° C. Subsequently, continuous administration of propofol at 60 mg/kg/hr was performed for 30 min. Fifteen minutes after LORR, Compound (I) was administered SC to rats in a volume of 5 mL/kg of BW. As vehicle-treated control, 10.5% (w/v) Captisol®/1.5 mM Na2HPO4 in distilled water was administered to rats. Thirty minutes after confirming LORR, propofol infusion was terminated and time to recovery from LORR was recorded as duration of anesthesia.

Male Sprague-Dawley rats [5] = experiment: Fentanyl (0.1 mg/kg)-induced respiratory depression assessed by whole body plethysmography (WBP)
Male Sprague-Dawley rats [6] = experiment: Fentanyl-induced analgesic effects in formalin test; settings: for Phase I (No. of flinching) / Phase II (No. of flinching): formalin test; for Phase I (No. of flinching): 1 to 11 min; for Phase II (No. of flinching): 16 to 61 min
[7] = Compound (I) 1.0 mg/kg SC 15 min after LORR
[8] = Compound (I) 10 mg/kg SC 15 min before fentanyl 0.1 mg/kg SC, 0 to 30 min after fentanyl
[9] = Compound (I) 3.0 mg/kg + fentanyl 0.045 mg/kg
[10] = Compound (I) 10 mg/kg + fentanyl 0.045 mg/kg

Question: Which “pain threshold 1 hr after the skin incision” value (Male Sprague-Dawley rats [1]; Compound (I) 3.0 mg/kg SC 15 min before incision + fentanyl 0.03 mg/kg SC) does the source give for `COC(=O)N1CCCC(NS(C)(=O)=O)C1COC1CCC(c2ccccc2)CC1` (stereo not drawn) [Compound (I), methyl 3-((methylsulfonyl)amino)-2-(((4-phenylcyclohexyl)oxy)methyl)piperidine-1-carboxylate] here?
Answer: The value was 28.5 g.

Question: And the “pain threshold 1 hr after the skin incision” value (Male Sprague-Dawley rats [1]; Compound (I) 10 mg/kg SC 15 min before incision + fentanyl 0.03 mg/kg SC)?
Answer: Its value is 32.2 g.

Question: What about the “effect on the analgesic effect of fentanyl” value (Male Sprague-Dawley rats [1]; postoperative skin incision model, fentanyl 0.03 mg/kg, result in words) of the same compound?
Answer: The value was “did not counteract the analgesic effect of fentanyl”.

Question: What about the “Duration of anesthesia (min) (Mean)” value (Male Sprague-Dawley rats [2]; Compound (I) 0.3 mg/kg SC 15 min after LORR) of the same compound?
Answer: Its value is 3.92 min.

Question: And the “Duration of anesthesia (min) (Mean)” value (Male Sprague-Dawley rats [2]; [7])?
Answer: The value was 3.06 min.

Question: And the “time to recovery from isoflurane-induced anesthesia assessed by righting reflex” value (Male Sprague-Dawley rats [2]; result in words)?
Answer: Its value is “reduced time to recovery”.

Question: What about the “Duration of sedation (min) (Mean)” value (Male Sprague-Dawley rats [3]; Compound (I) 1.0 mg/kg SC 10 min after fentanyl) of the same compound?
Answer: The value was 81.3 min.

Question: And the “Duration of sedation (min) (Mean)” value (Male Sprague-Dawley rats [3]; Compound (I) 3.0 mg/kg SC 10 min after fentanyl)?
Answer: The value was 67.0 min.

Question: And the “Duration of sedation (min) (Mean)” value (Male Sprague-Dawley rats [3]; Compound (I) 10 mg/kg SC 10 min after fentanyl)?
Answer: The value was 42.9 min.

Question: What about the “duration of fentanyl-induced sedation assessed by righting reflex” value (Male Sprague-Dawley rats [3]; result in words) of the same compound?
Answer: Its value is “reduced duration of fentanyl-induced sedation”.

Question: What about the “Duration of anesthesia (min) (Mean)” value (Male Sprague-Dawley rats [4]; [7]) of the same compound?
Answer: Its value is 11.7 min.

Question: What about the “Duration of anesthesia (min) (Mean)” value (Male Sprague-Dawley rats [4]; Compound (I) 3.0 mg/kg SC 15 min after LORR) of the same compound?
Answer: The value was 6.70 min.

Question: And the “Duration of anesthesia (min) (Mean)” value (Male Sprague-Dawley rats [4]; Compound (I) 10 mg/kg SC 15 min after LORR)?
Answer: Its value is 6.00 min.

Question: And the “time to recovery from propofol-induced anesthesia assessed by righting reflex” value (Male Sprague-Dawley rats [4]; result in words)?
Answer: Its value is “reduced time to recovery”.

Question: What about the “MV (mL/min) (Mean)” value (Male Sprague-Dawley rats [5]; [8]) of the same compound?
Answer: The value was 206 mL/min.

Question: And the “RR (breaths/min) (Mean)” value (Male Sprague-Dawley rats [5]; [8])?
Answer: Its value is 144 breaths/min.

Question: What about the “TV (mL/stroke) (Mean)” value (Male Sprague-Dawley rats [5]; [8]) of the same compound?
Answer: The value was 1.61 mL/stroke.

Question: And the fentanyl-induced respiratory depression (Male Sprague-Dawley rats [5]; result in words)?
Answer: The fentanyl-induced respiratory depression was “suppressed fentanyl-induced respiratory depression”.

Question: What about the “RR, TV and MV compared to that of vehicle group” value (Male Sprague-Dawley rats [5]; with fentanyl 0.1 mg/kg, result in words) of the same compound?
Answer: Its value is “increased RR, TV and MV”.

Question: And the “effect on the analgesic effect of fentanyl” value (Male Sprague-Dawley rats [6]; formalin pain model, fentanyl 0.045 mg/kg, result in words)?
Answer: The value was “did not counteract the analgesic effect of fentanyl”.

Question: What about the “Phase I (No. of flinching)” value (Male Sprague-Dawley rats [6]; [9]) of the same compound?
Answer: Its value is 5.

Question: And the “Phase I (No. of flinching)” value (Male Sprague-Dawley rats [6]; [10])?
Answer: The value was 4.

Question: What about the “Phase II (No. of flinching)” value (Male Sprague-Dawley rats [6]; [9]) of the same compound?
Answer: Its value is 52.

Question: What about the “Phase II (No. of flinching)” value (Male Sprague-Dawley rats [6]; [10]) of the same compound?
Answer: Its value is 45.
